Source: ChEMBL document CHEMBL1156829 (Proc Natl Acad Sci U S A, 2008)
pEC50: −log10 of the molar value.

Experiments:
[1] = NOVARTIS: Cytotoxicity against human hepatocellular carcinoma cell line (Huh7); assay type: toxicity, cell-based, Huh-7; details: Huh7 cells (hepatocellular carcinoma cell line)
Plasmodium falciparum [2] = test: NOVARTIS: Inhibition of Plasmodium falciparum W2 (drug-resistant) proliferation in erythrocyte-based infection assay; assay type: functional, organism-based; details: Plasmodium falciparum, W2; read-out: EC50
Plasmodium falciparum [3] = test: NOVARTIS: Inhibition of Plasmodium falciparum 3D7 (drug-susceptible) proliferation in erythrocyte-based infection assay; assay type: functional, organism-based; details: Plasmodium falciparum, 3D7

SMILES	CC50 [1] [nM]	pEC50 (Plasmodium falciparum [2])	pEC50 (Plasmodium falciparum [3])
O=C(NN=CC(Br)=Cc1ccccc1)c1ccc(F)cc1	> 10000	6.21	6.01
CN(C)c1ccc(/C=C2\SC(=Nc3ccc(O)cc3)NC2=O)cc1	8590	6.28	5.94
COc1ccc2nc(C)cc(Nc3ccc(Oc4ccc(Cl)cc4)c(Cl)c3)c2c1	9340	6.24	6.77
O=C(CCl)Nc1ccc(Cl)cc1	5700	6.47	6.26
CC(C)N1CCCC(C(=O)Nc2ccc(-c3nc4ccccc4[nH]3)cc2)C1 (stereo unspecified)	> 10000	6.23	6.01
COc1cc(OC)cc(C(=O)N2CCN(Cc3cccc(Br)c3)CC2)c1	> 100000	5.23	< 4.90
CCCCCCCn1c2c(c(=N)c3ccccc31)CCC2	3860	6.64	6.56
COc1ccccc1NC(=O)CCN1CCCC(C)C1 (stereo unspecified)	> 10000	< 6.22	< 5.78
CCN(CC)CCN(C)C1CCc2c(c(C(=O)N3CCCC3)nn2C)C1 (stereo unspecified)	12400	< 6.13	< 6.37
CN(C)c1cccc(Nc2cc(-c3ccc(CC(N)C(=O)O)cc3)nc3ccnn23)c1 (stereo unspecified)	> 10000	6.23	6.22
CC1CCN(C(=O)C2CCCN(S(=O)(=O)c3ccc4[nH]c(-c5ccccc5)nc4c3)C2)CC1 (stereo unspecified)	> 100000	5.22	< 4.90
COC(=O)C1=C(C)N(C)C(C)=C(C(=O)OC)C1c1ccc(C)cc1	> 9490	< 6.25	< 6.09
COc1ccc2cc(C(C)=NO)ccc2c1	> 100000	< 5.22	< 4.90
COc1ccccc1C(=O)NN=C(C)c1cccnc1	> 10000	< 6.22	< 5.90
CSC1=NC(C)(C)CC2(CC(c3ccc(C)cc3)c3cc(Cl)c(O)cc3O2)N1 (stereo unspecified)	> 10000	6.22	6.00
CCCCOc1c2ccccc2nc2ccccc12	> 10000	< 6.23	< 5.90
OC(CNc1cccc2ccccc12)Cn1c2ccccc2c2ccccc21 (stereo unspecified)	14900	6.05	5.59
Cc1oc2c(c1C(=O)N1CCN(C)CC1)C(=O)c1ccccc1C2=O	5460	6.47	6.08
CCN(CC)CCCN(Cc1cc2cc(OC)ccc2[nH]c1=O)C(=S)Nc1ccc(C)cc1	33000	5.69	5.47
CC(C)CNC(=O)c1cnc(NCCCn2ccnc2)nc1NCCc1ccccc1	> 10000	6.21	6.22
COc1ccc([N+](=O)[O-])cc1-c1ccc(/C=C(\C#N)c2nn(CCO)c(N)c2C#N)o1	> 10000	6.22	6.06
COc1ccc(C2=NN(C(=O)CCC(=O)O)C(c3ccccc3F)C2)cc1 (stereo unspecified)	> 10000	6.22	< 5.90
CCC(C(=O)Nc1sccc1C#N)c1ccccc1 (stereo unspecified)	> 10000	< 6.21	< 6.01
COc1ccc2[nH]cc(CCNC(=O)Oc3ccccc3)c2c1	> 10000	6.22	< 5.89
CCOc1ccc2nc(C)cc(Nc3ccc(OCc4ccccc4Cl)cc3)c2c1	5840	6.45	6.85
O=C(NCc1ccco1)C1CCCN(c2cccc3c2C(=O)N(CCc2cccc(F)c2)C3=O)C1 (stereo unspecified)	> 10000	< 6.21	< 5.85

SMILES	CC50 [1] [nM]	pEC50 (Plasmodium falciparum [2])	pEC50 (Plasmodium falciparum [3])
CCOC(=O)c1sc(NC(=O)CSc2nnc(CNC(=O)COc3ccc(Cl)cc3)n2C)c(C(=O)OCC)c1C	> 10000	< 6.22	5.97
COc1cc(NC(C)CCCN(Cc2ccccc2OC)C(=O)Nc2ccccc2OC)c2ncccc2c1 (stereo unspecified)	> 10000	6.21	6.07
CC(C)COc1ccc(C(=O)N/C(=C/c2ccccc2)C(N)=O)cc1	> 10000	< 6.21	< 5.90
CCOC(=O)c1cnc2c(C)cc(Cl)cc2c1Nc1ccc(OC)c(OC)c1	> 11800	< 6.14	< 5.90
COc1cc(NC2=CC(=O)C(=O)c3ccccc32)c(OC)cc1Cl	11200	6.16	6.53
CCCC1=[N+](CC(=O)c2ccc(C)cc2)CCn2c(C)ccc21	> 10000	< 6.21	6.10
O=C(NCCC(c1ccccc1)c1ccccc1)c1cccc([N+](=O)[O-])c1	> 10000	6.21	6.52
CC(C)(C)c1ccc(CNC(=O)C(Cc2ccc(O)cc2)c2ccccc2)cc1 (stereo unspecified)	53200	5.49	< 5.06
O=C1N(Cc2cc3ccccc3s2)CC2CN(Cc3ccoc3)CCN12 (stereo unspecified)	> 10000	6.21	5.97
COc1ccc(CN(C=O)/C=C2\Sc3ccccc3C2=O)cc1OC	> 10000	6.21	< 5.90
COc1ccc(CC(=O)N(CCCC(C)Nc2cc(OC)cc3cccnc23)Cc2ccc(OC)c(OC)c2)cc1 (stereo unspecified)	> 10800	6.18	5.92
N#Cc1cc(Oc2ccc(-c3cnc4ccccc4n3)cc2)nc2ccccc12	> 100000	5.21	< 4.90
O=C(c1ccccc1)N1CCN(CC(O)COCc2ccccc2)CC1 (stereo unspecified)	> 10000	6.21	< 5.90
CCCCCCN(C(=O)c1ccc(Cl)cc1)C(CC)c1nc2ccccc2c(=O)n1-c1ccccc1OC (stereo unspecified)	> 10000	6.22	6.02
CN(C)C(=O)NCCCCNc1ccnc2cc(Cl)ccc12	> 10000	6.22	6.00
CCCCCCN(C(=O)COCc1ccccc1)C(C)c1nc2ccccc2c(=O)n1-c1cccc(Cl)c1C (stereo unspecified)	> 10000	6.22	5.93
CC1CCN(c2nncc3ccccc23)CC1	> 100000	< 5.22	< 4.90
O=[N+]([O-])c1ccc(-c2nc3ccccc3n2-c2cc(-c3ccccc3)nn2-c2ccccc2)cc1	> 10000	< 6.21	< 5.79
CCOc1ccccc1-n1c(C(C)N(Cc2ccccc2)C(=O)Nc2ccccc2OC)nc2ccccc2c1=O (stereo unspecified)	> 6650	6.40	6.32
CCc1cc(C(=O)OC)c(NC(=S)NC(C)c2ccncc2)s1 (stereo unspecified)	> 86900	5.29	5.34
Brc1ccc2[nH]c3nc4ccccc4nc3c2c1	> 100000	< 5.23	< 4.90
Cc1ccc(NC(=O)C(C)Sc2nnc(-c3ccc(O)cc3)o2)cc1 (stereo unspecified)	> 10000	6.22	< 5.90
O=C(NCSC1=NCCS1)c1ccccc1	> 100000	< 5.22	< 4.90
CCOC(=O)C1=C(N)OC2=C(C(=O)CC(c3ccccc3)C2)C1c1ccc(Cl)cc1Cl (stereo unspecified)	> 10000	< 6.22	< 5.90
CC(C)(C)NC(=O)C(c1ccncc1)N(Cc1ccccc1Cl)C(=O)c1ccc(-c2ccccc2)[nH]1 (stereo unspecified)	67400	< 5.40	< 5.19
Cc1c(C(=O)N2CCC3(CCN(C)C3)C2)cnn1-c1ncc2c(n1)-c1ccccc1SC2 (stereo unspecified)	> 10000	6.22	5.81
